Measurements as given in ChEMBL document CHEMBL5729637, “Beta-amino acid derivative, kinase inhibitor and pharmaceutical composition containing the same, and method for performing an in vivo related application that benefits from the inhibition of a kinase” (2023).
pIC50: −log10 of the molar value.

Target: T1, Mitogen-activated protein kinase kinase kinase 19 (Homo sapiens, UniProt Q56UN5)
T1 sequence (Q56UN5 whole entry): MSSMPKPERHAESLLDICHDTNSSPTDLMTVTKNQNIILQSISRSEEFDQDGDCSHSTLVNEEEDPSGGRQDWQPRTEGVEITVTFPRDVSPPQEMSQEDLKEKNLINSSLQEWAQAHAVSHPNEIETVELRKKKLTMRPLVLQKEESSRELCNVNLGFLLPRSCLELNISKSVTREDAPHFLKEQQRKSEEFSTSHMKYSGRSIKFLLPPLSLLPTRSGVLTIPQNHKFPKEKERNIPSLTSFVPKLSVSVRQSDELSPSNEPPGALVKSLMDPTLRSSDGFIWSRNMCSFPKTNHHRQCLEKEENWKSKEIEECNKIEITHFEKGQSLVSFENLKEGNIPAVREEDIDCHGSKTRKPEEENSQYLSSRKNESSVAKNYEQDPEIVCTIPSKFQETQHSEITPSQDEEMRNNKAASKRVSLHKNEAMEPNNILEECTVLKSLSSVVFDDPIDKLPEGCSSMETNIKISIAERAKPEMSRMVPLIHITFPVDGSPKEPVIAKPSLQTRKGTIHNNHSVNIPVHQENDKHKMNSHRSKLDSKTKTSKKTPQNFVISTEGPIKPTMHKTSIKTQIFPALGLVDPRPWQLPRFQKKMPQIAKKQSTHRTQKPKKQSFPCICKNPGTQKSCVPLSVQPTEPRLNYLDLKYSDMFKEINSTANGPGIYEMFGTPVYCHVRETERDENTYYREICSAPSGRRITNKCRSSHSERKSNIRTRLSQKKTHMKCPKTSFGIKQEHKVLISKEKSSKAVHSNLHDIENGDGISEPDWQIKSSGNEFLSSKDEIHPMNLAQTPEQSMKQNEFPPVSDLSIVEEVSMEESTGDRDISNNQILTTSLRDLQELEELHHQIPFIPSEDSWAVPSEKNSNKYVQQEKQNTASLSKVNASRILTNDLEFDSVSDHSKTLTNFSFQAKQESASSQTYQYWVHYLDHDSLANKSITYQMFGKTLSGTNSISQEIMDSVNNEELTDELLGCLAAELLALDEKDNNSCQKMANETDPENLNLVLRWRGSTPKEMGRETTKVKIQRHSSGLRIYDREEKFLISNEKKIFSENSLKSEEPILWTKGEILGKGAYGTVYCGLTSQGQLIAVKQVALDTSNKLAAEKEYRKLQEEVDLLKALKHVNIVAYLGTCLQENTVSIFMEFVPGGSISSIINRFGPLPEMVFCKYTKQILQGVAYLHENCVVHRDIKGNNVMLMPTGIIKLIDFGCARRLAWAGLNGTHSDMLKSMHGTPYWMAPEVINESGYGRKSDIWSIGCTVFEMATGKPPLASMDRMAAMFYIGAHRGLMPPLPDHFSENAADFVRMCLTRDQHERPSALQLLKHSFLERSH
Assay: In Vitro Effect Assay: Table 5: The experimental procedure referred to the Z′-LYTE Screening Protocol and Assay Conditions provided by ThermoFisher Scientific. C-1. […] Peptide/Kinase Mixture was pre-diluted with Kinase Buffer to 2× working concentration. ATP solution was pre-diluted with Kinase Buffer (50 mM HEPES pH 7.5, 0.01% BRIJ-35, 10 mM MgCl2, 1 mM EGTA) to 4× working concentration. […], which contains 2 mg/mL Phosphatidyl Serine, 0.2 mg/mL DAG in 20 mM HEPES, pH 7.4 and 0.3% CHAPS, and was pre-diluted 10 fold with development buffer.C-2. Analytical Method. 1. 100 nL of the above diluted test compound and 2.4 μL of kinase buffer were added to a black 384-well plate (Corning, Cat. NO. 4514), then add 5 μL of the peptide/kinase mixture mentioned above was added thereto, and after that 2.5 μL of ATP solution was added thereto, and the culture plate was shaken for 30 seconds.2. Next, the culture plate was placed at room temperature and incubated for 60 minutes.3. After that 5 μL of the development reagent solution was added and the culture plate was shaken for 30 seconds in the dark, and then the data was read and analyzed with a fluorescence plate reader. […]

Row | SMILES | pIC50
1 | NCC(Oc1ccc(C(F)(F)F)cc1)C(=O)Nc1ccc(-c2cn[nH]c2)cc1 (configuration not stated) | < 5.00
2 | NCC(C(=O)Nc1ccc(-c2cn[nH]c2)cc1)c1ccc(CO)cc1 (configuration not stated) | < 6.00
